PMC8495968, “Towards optimizing peptide-based inhibitors of protein–protein interactions: predictive saturation variation scanning (PreSaVS)” (RSC Chemical Biology, 2021)
Like-named read-outs stand apart in the source and are kept apart here.

Tests used:
[1] = Solubility, qualitative test
Protocol: (1 picture or pasted object on this page, not shown here)
(§1) For competition experiments, the anisotropies were determined as for the direct titration and then plotted against inhibitor concentration and fit (equation 5) to determine the IC50 and error […]
(§2) y = rmax + (rmin-rmax)/(1+(x/xo)p) Equation 5
Where xo represents the IC50
Fluorescence anisotropy direct titration assays were performed with protein concentration diluted over 16-24 points using 2-fold dilutions. Followed by addition of tracer peptide was added to the wells. For control wells, the tracer peptide was replaced with an identical volume of assay buffer. Plates were read after 45 minutes.
(§3) Competition binding assays:
(§4) FA competition assays were performed in 384 well plates with the concentration of variant […]
(§5) with fixed protein and tracer concentrations. FITC-labelled peptide was added to each well to […]
The total volume in each well was 60 μL. Plates were read after 45 minutes of incubation at […]
ITC experiments were carried out using a Microcal ITC200i instrument (Malvern) at 25°C in 20 mM Tris, 150 mM NaCl, pH 7.5 buffer. […] Data was analysed using Microcal Origin 8 and fitted to a one-binding site model
Spectra were recorded on a Chirascan circular dichroism spectropolarimeter (Applied Photophysics), at 20°C, using 1 mm cells and a scan speed of 5 nm/min. […]
Peptide solubility was assessed using a qualitative test. […]

hSUMO-1 18-97 = target: T1, hSUMO-1 18-97 (Homo sapiens, UniProt P63165); assay: Fluorescence anisotropy competition assay, FITC-peg-SIM tracer / SUMO; format: binding; details: competition FA, 50 mM Tris, 150 mM NaCl, 25 nM tracer, 100 nM SUMO, read after 45 min, triplicate
T1 construct: 18-97; His-TEV (N, cleaved yes); made in house
Protocol: hSUMO-1 18-97 was expressed and purified as previously described from a pet19b His-TEV-SUMO-1 (18-97) construct with cleavage of the tag using TEV protease.4 […]
Fluorescence anisotropy assays were performed in 384-well plates (Greiner Bio-one). Each experiment was run in triplicate and the fluorescence anisotropy measured using a Perkin Elmer EnVisionTM 2103 MultiLabel plate reader, with excitation at 480 nm (30 nm bandwidth), polarised dichroic mirror at 505 nm and emission at 535 nm (40 nm bandwidth, S and P polarised). All assays were performed in 20 mM Tris, 100 mM NaCl, 0.1 mM DTT, pH 7.5 unless otherwise stated and data analysed following previously published methods.
Fluorescence anisotropy data was processed as described previously.[2] Briefly. the data from both the P (perpendicular intensity) and S (parallel intensity) channels, resulting from this measurement and corrected by subtracting the corresponding control wells, were used to calculate the intensity and anisotropy for each well following Equations 1 and 2: […]
For direct titration the average anisotropy (across three experimental replicates) and the standard deviation of these values were then calculated and fit to a logistic model using OriginPro 9.0 to determine the maximum and minimum anisotropies then the fraction bound calculated (Equation 3) and used to determine Kd (equation 4)
Lb= (r‒rmin)/λ(rmax‒r)+r‒rmin Equation 3
y= {(k+ x+[ FL])‒√{k+x+[FL] 2‒4x[FL]}}/2 Equation 4 r = anisotropy, I = total intensity, P = perpendicular intensity, S = parallel intensity, G = instrument factor which was set to 1 for all experiments, Lb = fraction ligand bound, λ = […]
as §1, §2
Where xo represents the IC50 […]
as §3, §4, §5
For control wells, the tracer peptide was replaced with an identical volume of assay buffer.
The total volume in each well was 60 μL. […]

T1 sequence (P63165 18-97): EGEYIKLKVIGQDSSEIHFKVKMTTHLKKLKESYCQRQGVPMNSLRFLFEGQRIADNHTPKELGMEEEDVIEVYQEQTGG

Compound	maximum solubility / concentration obtained ([1]; qualitative test) [mM]	IC50 (hSUMO-1 18-97) [µM]	maximum solubility / concentration obtained [1]
CC[C@H](C)[C@H](NC(=O)[C@@H](NC(=O)[C@H](CCC(=O)O)NC(=O)[C@H](CC(=O)O)NC(=O)[C@H](CCC(=O)O)NC(=O)[C@H](CC(N)=O)NC(=O)[C@H](CC(=O)O)NC(C)=O)C(C)C)C(=O)N[C@H](C(=O)N[C@H](C(=O)N[C@@H](Cc1c[nH]c2ccccc12)C(=O)N[C@@H](CCC(=O)O)C(=O)N[C@@H](CCCCN)C(=O)N[C@@H](CCCCN)C(N)=O)C(C)C)[C@@H](C)CC [SIM2705–2717I2708D]	> 8	14.8 ± 0.7	
CC[C@H](C)[C@H](NC(=O)[C@H](CCC(=O)O)NC(=O)[C@H](CC(N)=O)NC(=O)[C@H](CC(=O)O)NC(C)=O)C(=O)N[C@@H](CCC(=O)O)C(=O)N[C@H](C(=O)N[C@H](C(=O)N[C@H](C(=O)N[C@H](C(=O)N[C@@H](Cc1c[nH]c2ccccc12)C(=O)N[C@@H](CCC(=O)O)C(=O)N[C@@H](CCCCN)C(=O)N[C@@H](CCCCN)C(N)=O)C(C)C)[C@@H](C)CC)[C@@H](C)CC)C(C)C [SIM2705–2717]			~ 1 mM
